These results are taken from paper doi:10.1101/2021.02.22.432404v1 (biorxiv, 2021).

This experiment has as its target T1, E. coli thymidylate kinase (TMPK) (Escherichia coli, UniProt P0A720).
T1 sequence (P0A720 1-213): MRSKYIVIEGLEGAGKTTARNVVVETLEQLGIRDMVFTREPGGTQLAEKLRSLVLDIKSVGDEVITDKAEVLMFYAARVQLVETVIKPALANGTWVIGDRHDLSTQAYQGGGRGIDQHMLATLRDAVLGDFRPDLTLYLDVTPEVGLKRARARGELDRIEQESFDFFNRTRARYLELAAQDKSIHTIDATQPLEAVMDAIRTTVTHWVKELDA
In words: ATPlite luminescence assay, direction of ATP synthesis. Format: biochemical. (In ATP-based viability assays light output follows the ATP content of the culture.)
As a reminder, the IC50 is the concentration that gives 50% inhibition. The low end stands for higher potency, the high end for lower potency. With `C=CCOc1cccc(C=C2SC(=S)NC2=O)c1` [compound 13], the IC50 was 1000 nM.
On to `COc1ccc(C=C2SC(=S)NC2=O)cc1O` [compound 2], for which the IC50 turned out to be 2500 nM.
With `CCOC(=O)COc1ccc(C=C2SC(=S)NC2=O)cc1OC` [compound 31] the figure was 680 nM; with `CCOc1ccc(C=C2SC(S)=NC2=O)cc1OC` [compound 9], 410 nM; with `COc1cc(C=C2SC(=S)NC2=O)ccc1OC(C)C` [compound 1], 390 nM.
Molecule `COc1cc(C=C2SC(=S)NC2=O)cc(OC)c1O` [compound 27] came in with an IC50 of 250 nM.
For `COc1cc(C=C2SC(=S)NC2=O)ccc1O` [compound 12], the IC50 stood at 500 nM.
The value for `COc1cc(C=C2SC(=S)NC2=O)ccc1OC(C)=O` [compound 11] was 480 nM; that for `CCOc1cc(C=C2SC(=S)NC2=O)ccc1OC(C)=O` [compound 28] was 470 nM.
